Test system: MV-4-11 cells
Experiment: Gene expression microarray analysis (Affymetrix PrimeView) and GSEA
Assay type: cell-based, human
Parameters: RFU PODN (11730768_x_at) / Fold change /veh PODN (11730768_x_at) / RFU LINC00158 (11744669_a_at) / Fold change /veh LINC00158 (11744669_a_at) / RFU DUSP10 (11751237_a_at) / Fold change /veh DUSP10 (11751237_a_at) / RFU ID3 (11757404_x_at) / Fold change /veh ID3 (11757404_x_at) / RFU PLEKHG5 (11737974_s_at) / Fold change /veh PLEKHG5 (11737974_s_at) / RFU LRRC4B (11730491_at) / Fold change /veh LRRC4B (11730491_at) / RFU GIMAP4 (11747438_a_at) / Fold change /veh GIMAP4 (11747438_a_at) / RFU KRT8 (11758183_x_at) / Fold change /veh KRT8 (11758183_x_at) / RFU CNN1 (11734310_a_at) / Fold change /veh CNN1 (11734310_a_at) / RFU VPS37D (11726825_at) / Fold change /veh VPS37D (11726825_at) / RFU C10orf10 (11716522_x_at) / Fold change /veh C10orf10 (11716522_x_at) / RFU KIR2DL2 /// KIR2DL4 /// KIR2DL5A /// KIR2DL5B /// KIR2DS1 /// KIR2DS2 /// KIR2DS3 /// KIR2DS4 /// KIR3DL3 /// KIR3DL3 /// KIR3DS1 (11738374_at) / Fold change /veh KIR2DL2 /// KIR2DL4 /// KIR2DL5A /// KIR2DL5B /// KIR2DS1 /// KIR2DS2 /// KIR2DS3 /// KIR2DS4 /// KIR3DL3 /// KIR3DL3 /// KIR3DS1 (11738374_at) / RFU C1QL1 (11718748_at) / Fold change /veh C1QL1 (11718748_at) / RFU TMPRSS4 (11747572_a_at) / Fold change /veh TMPRSS4 (11747572_a_at) / RFU HAMP (11756126_x_at) / Fold change /veh HAMP (11756126_x_at) / RFU RNFT2 (11725882_a_at) / Fold change /veh RNFT2 (11725882_a_at) / RFU NR4A2 (11747474_a_at) / Fold change /veh NR4A2 (11747474_a_at) / RFU ABCC12 (11746883_a_at) / Fold change /veh ABCC12 (11746883_a_at) / RFU TMEM136 (11760407_x_at) / Fold change /veh TMEM136 (11760407_x_at) / RFU CLDN22 /// WWC2 (11732394_at) / Fold change /veh CLDN22 /// WWC2 (11732394_at) / RFU HLA-DPB1 (11760878_x_at) / Fold change /veh HLA-DPB1 (11760878_x_at) / RFU SPINT1 (11716480_a_at) / Fold change /veh SPINT1 (11716480_a_at) / RFU GAP43 (11754022_s_at) / Fold change /veh GAP43 (11754022_s_at) / RFU A4GNT (11735810_at) / Fold change /veh A4GNT (11735810_at) / RFU PRB3 (11715151_x_at) / Fold change /veh PRB3 (11715151_x_at) / RFU TUBB4B (11761932_at) / Fold change /veh TUBB4B (11761932_at) / RFU CAPN14 (11732068_a_at) / Fold change /veh CAPN14 (11732068_a_at) / RFU TMCC2 (11721928_a_at) / Fold change /veh TMCC2 (11721928_a_at) / RFU IRGQ (11745062_a_at) / Fold change /veh IRGQ (11745062_a_at) / RFU FAM174B (11720279_a_at) / Fold change /veh FAM174B (11720279_a_at) / RFU TMPRSS4 (11748680_a_at) / Fold change /veh TMPRSS4 (11748680_a_at) / RFU FAM212B (11763350_a_at) / Fold change /veh FAM212B (11763350_a_at) / RFU PLEKHG5 (11743358_a_at) / Fold change /veh PLEKHG5 (11743358_a_at) / RFU ZSCAN30 (11745921_a_at) / Fold change /veh ZSCAN30 (11745921_a_at) / RFU CMKLR1 (11741424_a_at) / Fold change /veh CMKLR1 (11741424_a_at) / RFU LOC101060620 /// MAPK8IP1 (11723275_at) / Fold change /veh LOC101060620 /// MAPK8IP1 (11723275_at) / RFU SPTSSB (11747773_x_at) / Fold change /veh SPTSSB (11747773_x_at) / RFU PRSS12 (11739890_at) / Fold change /veh PRSS12 (11739890_at) / RFU BIN1 (11741810_x_at) / Fold change /veh BIN1 (11741810_x_at) / RFU WNT11 (11732464_a_at) / Fold change /veh WNT11 (11732464_a_at) / RFU C10orf10 (11716521_a_at) / Fold change /veh C10orf10 (11716521_a_at) / RFU C5orf56 (11738089_at) / Fold change /veh C5orf56 (11738089_at) / RFU CYB561 (11721691_x_at) / Fold change /veh CYB561 (11721691_x_at) / RFU ANKRD19P (11752326_a_at) / Fold change /veh ANKRD19P (11752326_a_at) / RFU OR2T12 /// OR2T33 /// OR2T8 (11738714_s_at) / Fold change /veh OR2T12 /// OR2T33 /// OR2T8 (11738714_s_at) / RFU VCAN (11748164_a_at) / Fold change /veh VCAN (11748164_a_at) / RFU JSRP1 (11732532_at) / Fold change /veh JSRP1 (11732532_at) / RFU KRTAP10-11 (11738290_x_at) / Fold change /veh KRTAP10-11 (11738290_x_at) / RFU MYO3A (11730013_a_at) / Fold change /veh MYO3A (11730013_a_at) / RFU EBF3 (11725865_a_at) / Fold change /veh EBF3 (11725865_a_at) / RFU CAMK2N1 (11719241_x_at) / Fold change /veh CAMK2N1 (11719241_x_at) / RFU C5orf56 (11738088_a_at) / Fold change /veh C5orf56 (11738088_a_at) / RFU OLFML3 (11715873_a_at) / Fold change /veh OLFML3 (11715873_a_at) / RFU LOC100653217 /// NTM (11731650_a_at) / Fold change /veh LOC100653217 /// NTM (11731650_a_at) / RFU MAPK11 (11762145_a_at) / Fold change /veh MAPK11 (11762145_a_at) / RFU FIZ1 (11724087_x_at) / Fold change /veh FIZ1 (11724087_x_at) / RFU OASL (11726364_x_at) / Fold change /veh OASL (11726364_x_at) / RFU SOX15 (11748057_x_at) / Fold change /veh SOX15 (11748057_x_at) / RFU CD79A (11719716_a_at) / Fold change /veh CD79A (11719716_a_at) / RFU HIST1H1D (11736915_at) / Fold change /veh HIST1H1D (11736915_at) / RFU CASKIN2 (11723855_a_at) / Fold change /veh CASKIN2 (11723855_a_at) / RFU LOC730098 (11760151_x_at) / Fold change /veh LOC730098 (11760151_x_at) / RFU OR4N2 (11742367_at) / Fold change /veh OR4N2 (11742367_at) / RFU PRRT2 (11749266_a_at) / Fold change /veh PRRT2 (11749266_a_at) / RFU SNX32 (11753110_a_at) / Fold change /veh SNX32 (11753110_a_at) / RFU CDHR5 (11726645_a_at) / Fold change /veh CDHR5 (11726645_a_at) / RFU RCAN1 (11760418_a_at) / Fold change /veh RCAN1 (11760418_a_at) / RFU FAM167A (11723789_a_at) / Fold change /veh FAM167A (11723789_a_at) / RFU FAM26E (11764081_at) / Fold change /veh FAM26E (11764081_at) / RFU ISYNA1 (11749810_s_at) / Fold change /veh ISYNA1 (11749810_s_at) / RFU ACY1 (11761880_at) / Fold change /veh ACY1 (11761880_at) / RFU 11764098_at / Fold change /veh 11764098_at / RFU SAMD14 (11745864_x_at) / Fold change /veh SAMD14 (11745864_x_at) / RFU NPB (11741838_a_at) / Fold change /veh NPB (11741838_a_at) / RFU TMPRSS6 (11731388_a_at) / Fold change /veh TMPRSS6 (11731388_a_at) / RFU KRTAP10-2 (11738614_at) / Fold change /veh KRTAP10-2 (11738614_at) / RFU ARHGAP8 /// PRR5-ARHGAP8 (11727945_x_at) / Fold change /veh ARHGAP8 /// PRR5-ARHGAP8 (11727945_x_at) / RFU KRTAP5-7 /// NADSYN1 (11734609_at) / Fold change /veh KRTAP5-7 /// NADSYN1 (11734609_at) / RFU RASL12 (11751679_a_at) / Fold change /veh RASL12 (11751679_a_at) / RFU CDKN2B (11736163_a_at) / Fold change /veh CDKN2B (11736163_a_at) / RFU PRF1 (11729649_at) / Fold change /veh PRF1 (11729649_at) / RFU, ZNF638 /// ZNF638-IT1 / Fold change vs veh, ZNF638 /// ZNF638-IT1 / RFU, PANK3 / Fold change vs veh, PANK3 / RFU, SH3YL1 / Fold change vs veh, SH3YL1 / RFU, ZEB2 / Fold change vs veh, ZEB2 / RFU, NRIP1 / Fold change vs veh, NRIP1 / RFU, PTTG1IP / Fold change vs veh, PTTG1IP / RFU, CAPN2 / Fold change vs veh, CAPN2 / RFU, MED14 / Fold change vs veh, MED14 / RFU, SNORA58 / Fold change vs veh, SNORA58 / RFU, C1orf63 / Fold change vs veh, C1orf63 / RFU, LRRFIP1 / Fold change vs veh, LRRFIP1 / RFU, NDUFAF7 / Fold change vs veh, NDUFAF7 / RFU, SLC12A2 / Fold change vs veh, SLC12A2 / RFU, IBTK / Fold change vs veh, IBTK / RFU, ESF1 / Fold change vs veh, ESF1 / Fold change vs veh, TMEM50B / RFU, TAOK1 / Fold change vs veh, TAOK1 / RFU, ACBD3 / Fold change vs veh, ACBD3 / RFU, TMA16 / Fold change vs veh, TMA16 / RFU, RWDD3 / Fold change vs veh, RWDD3 / RFU, BCAT1 / Fold change vs veh, BCAT1 / RFU, EDEM3 / Fold change vs veh, EDEM3 / RFU, TMEM33 / Fold change vs veh, TMEM33 / RFU, WDR75 / Fold change vs veh, WDR75 / RFU, AHCTF1 / Fold change vs veh, AHCTF1 / RFU, TFRC / Fold change vs veh, TFRC / RFU, ZDHHC17 / Fold change vs veh, ZDHHC17 / RFU, NOM1 / Fold change vs veh, NOM1 / RFU, ARL8B / Fold change vs veh, ARL8B / RFU, ZBTB11 / Fold change vs veh, ZBTB11 / RFU, TAMM41 / Fold change vs veh, TAMM41 / RFU, KIAA1704 /// LOC100996395 / Fold change vs veh, KIAA1704 /// LOC100996395 / RFU, ING1 / Fold change vs veh, ING1 / RFU, TRMT61B / Fold change vs veh, TRMT61B / RFU, FUBP3 / Fold change vs veh, FUBP3 / RFU, TP53 / Fold change vs veh, TP53 / RFU, TNKS2 / Fold change vs veh, TNKS2 / RFU, ZFP14 / Fold change vs veh, ZFP14 / RFU, ACTR2 / Fold change vs veh, ACTR2 / RFU, PPP3R1 / Fold change vs veh, PPP3R1 / RFU, PIK3R1 / Fold change vs veh, PIK3R1 / RFU, HNRNPA1 / Fold change vs veh, HNRNPA1 / RFU, RNF170 / Fold change vs veh, RNF170 / RFU, ZNF28 / Fold change vs veh, ZNF28 / RFU, RNGTT / Fold change vs veh, RNGTT / RFU, OGT / Fold change vs veh, OGT / RFU, BRD1 / Fold change vs veh, BRD1 / RFU, MARS / Fold change vs veh, MARS / RFU, ZNF655 / Fold change vs veh, ZNF655 / RFU, FAHD1 / Fold change vs veh, FAHD1 / RFU, BDP1 / Fold change vs veh, BDP1 / RFU, LRRCC1 / Fold change vs veh, LRRCC1 / RFU, ARID1A / Fold change vs veh, ARID1A / RFU, ZNF146 / Fold change vs veh, ZNF146 / RFU, ZNF330 / Fold change vs veh, ZNF330 / RFU, GPN3 / Fold change vs veh, GPN3 / RFU, C9orf123 / Fold change vs veh, C9orf123 / RFU, N4BP2L2 / Fold change vs veh, N4BP2L2 / RFU, ARFIP1 / Fold change vs veh, ARFIP1 / RFU, FAM179B / Fold change vs veh, FAM179B / RFU, BCL10 / Fold change vs veh, BCL10 / RFU, UHRF1BP1L / Fold change vs veh, UHRF1BP1L / RFU, BET1 / Fold change vs veh, BET1 / RFU, CNOT2 / Fold change vs veh, CNOT2 / RFU, ZNF268 / Fold change vs veh, ZNF268 / Fold change vs veh, ZNF507 / RFU, DGCR2 / Fold change vs veh, DGCR2 / RFU, WDSUB1 / Fold change vs veh, WDSUB1 / Fold change vs veh, HSP90B1 /// MIR3652 / RFU, ADSS / Fold change vs veh, ADSS / RFU, GK / Fold change vs veh, GK / RFU, ZNF148 / Fold change vs veh, ZNF148 / RFU, TAF9 / Fold change vs veh, TAF9 / RFU, SLC1A5 / Fold change vs veh, SLC1A5 / RFU, SLMO2 / Fold change vs veh, SLMO2 / RFU, ABCC4 / Fold change vs veh, ABCC4 / RFU, LOC101060439 /// RAP1B / Fold change vs veh, LOC101060439 /// RAP1B / RFU, RFX7 / Fold change vs veh, RFX7 / RFU, GTPBP10 / Fold change vs veh, GTPBP10 / RFU, CNEP1R1 / Fold change vs veh, CNEP1R1 / RFU, BIVM-ERCC5 /// ERCC5 / Fold change vs veh, BIVM-ERCC5 /// ERCC5 / RFU, ILF3 / Fold change vs veh, ILF3 / RFU 11762660_at / Fold change /veh 11762660_at / RFU VCAN (11757783_s_at) / Fold change /veh VCAN (11757783_s_at) / RFU DDX43 (11728927_at) / Fold change /veh DDX43 (11728927_at) / RFU KRT8 (11758188_x_at) / Fold change /veh KRT8 (11758188_x_at) / RFU NKD1 (11759106_at) / Fold change /veh NKD1 (11759106_at) / RFU SRD5A1 (11742802_a_at) / Fold change /veh SRD5A1 (11742802_a_at) / RFU TPSAB1 /// TPSB2 (11721975_s_at) / Fold change /veh TPSAB1 /// TPSB2 (11721975_s_at) / RFU GSTM3 (11746129_a_at) / Fold change /veh GSTM3 (11746129_a_at) / RFU IL23R (11737362_x_at) / Fold change /veh IL23R (11737362_x_at) / RFU TMEM51 (11727254_a_at) / Fold change /veh TMEM51 (11727254_a_at) / RFU PIWIL2 (11732686_x_at) / Fold change /veh PIWIL2 (11732686_x_at) / RFU ORM1 (11744905_x_at) / Fold change /veh ORM1 (11744905_x_at) / RFU CCDC152 (11743942_at) / Fold change /veh CCDC152 (11743942_at) / RFU ECM1 (11717891_a_at) / Fold change /veh ECM1 (11717891_a_at) / RFU IL23R (11748794_a_at) / Fold change /veh IL23R (11748794_a_at) / RFU TNFAIP8L3 (11732012_x_at) / Fold change /veh TNFAIP8L3 (11732012_x_at) / RFU MBOAT4 (11741988_at) / Fold change /veh MBOAT4 (11741988_at) / RFU 11764193_at / Fold change /veh 11764193_at / RFU TMEM53 (11763286_at) / Fold change /veh TMEM53 (11763286_at) / RFU MAGEB2 (11727129_at) / Fold change /veh MAGEB2 (11727129_at) / RFU TMEM200A (11744735_a_at) / Fold change /veh TMEM200A (11744735_a_at) / RFU CCDC152 (11751479_a_at) / Fold change /veh CCDC152 (11751479_a_at) / RFU FAM211A (11726209_a_at) / Fold change /veh FAM211A (11726209_a_at) / RFU RGS16 (11746705_a_at) / Fold change /veh RGS16 (11746705_a_at) / RFU VCAN (11755009_s_at) / Fold change /veh VCAN (11755009_s_at) / RFU RHOB (11743442_s_at) / Fold change /veh RHOB (11743442_s_at) / RFU RGS16 (11720943_a_at) / Fold change /veh RGS16 (11720943_a_at) / RFU RGS16 (11720944_at) / Fold change /veh RGS16 (11720944_at) / RFU, VPS4B / Fold change vs veh, VPS4B / RFU, CREB1 / Fold change vs veh, CREB1 / RFU, DNAJC13 / Fold change vs veh, DNAJC13 / RFU, GNAQ / Fold change vs veh, GNAQ / RFU, CDK5R1 / Fold change vs veh, CDK5R1 / RFU, ZRANB3 / Fold change vs veh, ZRANB3 / RFU, CUL4A / Fold change vs veh, CUL4A / RFU, CCNY / Fold change vs veh, CCNY / RFU, UFL1 / Fold change vs veh, UFL1 / RFU, COG3 / Fold change vs veh, COG3 / RFU, DIAPH2 / Fold change vs veh, DIAPH2 / RFU, SKA2 / Fold change vs veh, SKA2 / RFU, AFF3 / Fold change vs veh, AFF3 / RFU, LMF1 / Fold change vs veh, LMF1 / RFU, IPO11 / Fold change vs veh, IPO11 / RFU, DFFB / Fold change vs veh, DFFB / RFU, FOXP1 / Fold change vs veh, FOXP1 / RFU, CARD8 / Fold change vs veh, CARD8 / RFU, STRN3 / Fold change vs veh, STRN3 / RFU, ADK / Fold change vs veh, ADK / RFU, RASSF2 / Fold change vs veh, RASSF2 / RFU, WIPF1 / Fold change vs veh, WIPF1 / RFU, LARP1B / Fold change vs veh, LARP1B / RFU, RASA1 / Fold change vs veh, RASA1 / RFU, RB1 / Fold change vs veh, RB1 / RFU, PPFIA1 / Fold change vs veh, PPFIA1 / RFU, MAT2A / Fold change vs veh, MAT2A / RFU, CCT5 / Fold change vs veh, CCT5 / RFU, WDR92 / Fold change vs veh, WDR92 / RFU, CUX1 / Fold change vs veh, CUX1 / RFU, TTC7A / Fold change vs veh, TTC7A / RFU, TMEM135 / Fold change vs veh, TMEM135 / RFU, DEPTOR / Fold change vs veh, DEPTOR / RFU, CPM / Fold change vs veh, CPM / RFU, DNAJB6 / Fold change vs veh, DNAJB6 / RFU, CACNA2D3 / Fold change vs veh, CACNA2D3 / RFU, DTX4 / Fold change vs veh, DTX4 / RFU, TFCP2 / Fold change vs veh, TFCP2 / RFU, GMCL1 /// GMCL1P1 / Fold change vs veh, GMCL1 /// GMCL1P1 / RFU, AEBP2 / Fold change vs veh, AEBP2 / RFU, SNHG1 /// SNORD22 /// SNORD25 /// SNORD26 /// SNORD27 /// SNORD28 /// SNORD29 /// SNORD31 / Fold change vs veh, SNHG1 /// SNORD22 /// SNORD25 /// SNORD26 /// SNORD27 /// SNORD28 /// SNORD29 /// SNORD31 / Fold change (Aza/veh), C12orf56 (ProbeSet 11735607_a_at) / Fold change (ACY-1035/veh), C12orf56 (ProbeSet 11735607_a_at) / Fold change (Aza/veh), FGFR1OP (ProbeSet 11751329_s_at) / Fold change (ACY-1035/veh), FGFR1OP (ProbeSet 11751329_s_at) / Fold change (Aza/veh), VPS36 (ProbeSet 11739960_a_at) / Fold change (ACY-1035/veh), VPS36 (ProbeSet 11739960_a_at) / RFU SYPL1 (11715823_x_at) / Fold change /veh SYPL1 (11715823_x_at) / RFU IGFBP7 (11715501_s_at) / Fold change /veh IGFBP7 (11715501_s_at) / RFU REEP3 (11722064_at) / Fold change /veh REEP3 (11722064_at) / RFU IGLL1 (11728026_x_at) / Fold change /veh IGLL1 (11728026_x_at): dose or concentration left out as unconfirmed
Settings: MV-4-11 cells, 48 hours

Nc1ncn([C@@H]2O[C@H](CO)[C@@H](O)[C@H]2O)c(=O)n1 [azacitidine]
Fold change /veh CNN1 (11734310_a_at): 1.15
